Measured values taken from PubChem BioAssay AID1259407 (Chemical Carcinogenesis Research Information System (CCRIS), 2018).
Calls of active or inactive are those of the source. How the calls were made is not given here.

Tested on: CCRIS mutagenicity, Ames/micronucleus/aberration tests
Test: CCRIS mutagenicity studies
[1] = Test System: AMES SALMONELLA TYPHIMURIUM, Strain/Indicator: TA98, Metabolic Activation: NONE, Method: PREINCUBATION
[2] = Test System: AMES SALMONELLA TYPHIMURIUM, Strain/Indicator: TA100, Metabolic Activation: NONE, Method: PREINCUBATION

Structure (SMILES): [Cl][Pt-2]([Cl])([Cl])([Cl])([Cl])[Cl]
- mutagenic call (Test System: AMES SALMONELLA TYPHIMURIUM, Strain/Indicator: TA97A, Metabolic Activation: RAT, LIVER, S-9, PHENOBARBITAL AND 5,6-BENZOFLAVONE, Method: STANDARD PLATE): active; positive
- mutagenic call (Test System: AMES SALMONELLA TYPHIMURIUM, Strain/Indicator: TA97A, Metabolic Activation: RAT, LIVER, S-9, PHENOBARBITAL AND BETA-NAPHTHOFLAVONE, Method: STANDARD PLATE): active; positive
- mutagenic call [1]: inactive; negative
- mutagenic call (Test System: AMES SALMONELLA TYPHIMURIUM, Strain/Indicator: TA98, Metabolic Activation: NONE, Method: STANDARD PLATE): active; positive
- mutagenic call (Test System: AMES SALMONELLA TYPHIMURIUM, Strain/Indicator: TA98, Metabolic Activation: RAT, LIVER, S-9, AROCLOR 1254, Method: PREINCUBATION): active; positive
- mutagenic call (Test System: AMES SALMONELLA TYPHIMURIUM, Strain/Indicator: TA98, Metabolic Activation: RAT, LIVER, S-9, PHENOBARBITAL AND 5,6-BENZOFLAVONE, Method: STANDARD PLATE): active; positive
- mutagenic call (Test System: AMES SALMONELLA TYPHIMURIUM, Strain/Indicator: TA98, Metabolic Activation: RAT, LIVER, S-9, PHENOBARBITAL AND BETA-NAPHTHOFLAVONE, Method: STANDARD PLATE): active; positive
- mutagenic call [2]: inactive; negative
- mutagenic call (Test System: AMES SALMONELLA TYPHIMURIUM, Strain/Indicator: TA100, Metabolic Activation: NONE, Method: STANDARD PLATE): active; positive
- mutagenic call (Test System: AMES SALMONELLA TYPHIMURIUM, Strain/Indicator: TA100, Metabolic Activation: RAT, LIVER, S-9, AROCLOR 1254, Method: PREINCUBATION): inactive; negative
- mutagenic call (Test System: AMES SALMONELLA TYPHIMURIUM, Strain/Indicator: TA100, Metabolic Activation: RAT, LIVER, S-9, PHENOBARBITAL AND 5,6-BENZOFLAVONE, Method: STANDARD PLATE): active; positive
- mutagenic call (Test System: AMES SALMONELLA TYPHIMURIUM, Strain/Indicator: TA100, Metabolic Activation: RAT, LIVER, S-9, PHENOBARBITAL AND BETA-NAPHTHOFLAVONE, Method: STANDARD PLATE): active; positive
- mutagenic call (Test System: AMES SALMONELLA TYPHIMURIUM, Strain/Indicator: TA102, Metabolic Activation: NONE, Method: STANDARD PLATE): active; positive
- mutagenic call (Test System: AMES SALMONELLA TYPHIMURIUM, Strain/Indicator: TA102, Metabolic Activation: RAT, LIVER, S-9, PHENOBARBITAL AND 5,6-BENZOFLAVONE, Method: STANDARD PLATE): active; positive
- mutagenic call (Test System: AMES SALMONELLA TYPHIMURIUM, Strain/Indicator: TA102, Metabolic Activation: RAT, LIVER, S-9, PHENOBARBITAL AND BETA-NAPHTHOFLAVONE, Method: STANDARD PLATE): active; positive

Structure (SMILES): O=C(O)C(Br)Br
- mutagenic call (End Point: Ames Salmonella typhimurium, Test System: TA98, Metabolic Activation: Hamster, liver, S-9, Aroclor 1254, Method: Preincubation): inactive; negative
- mutagenic call (End Point: Ames Salmonella typhimurium, Test System: TA100, Metabolic Activation: Hamster, liver, S-9, Aroclor 1254, Method: Preincubation): active; positive
- mutagenic call (End Point: In vivo micronucleus, Test System: Peripheral blood erythrocytes, Species: Mouse, Strain/Sex: B6C3F1/Female, Route: Oral (drinking water)): inactive; negative (for increased frequencies of micronucleated normochromatic erythrocyte
- mutagenic call (End Point: In vivo micronucleus, Test System: Peripheral blood erythrocytes, Species: Mouse, Strain/Sex: B6C3F1/Male, Route: Oral (drinking water)): inactive; positive (for increased frequencies of micronucleated normochromatic erythrocyte
- mutagenic call (Test System: AMES SALMONELLA TYPHIMURIUM, Strain/Indicator: RSJ100, Metabolic Activation: NONE, Method: PREINCUBATION): inactive; negative
- mutagenic call (Test System: AMES SALMONELLA TYPHIMURIUM, Strain/Indicator: RSJ100, Metabolic Activation: RAT LIVER S-9, Method: PREINCUBATION): inactive; negative
- mutagenic call (Test System: AMES SALMONELLA TYPHIMURIUM, Strain/Indicator: TA98, Metabolic Activation: RAT LIVER S-9, Method: PREINCUBATION): active; positive
- mutagenic call (Test System: AMES SALMONELLA TYPHIMURIUM, Strain/Indicator: TA98, Metabolic Activation: RAT, LIVER, S-9, PHENOBARBITAL AND 5,6-BENZOFLAVONE, Method: PREINCUBATION): inactive; negative
- mutagenic call (Test System: AMES SALMONELLA TYPHIMURIUM, Strain/Indicator: TA100, Metabolic Activation: NONE, Method: FLUCTUATION TEST): active; positive
- mutagenic call [2]: active; positive
- mutagenic call (Test System: AMES SALMONELLA TYPHIMURIUM, Strain/Indicator: TA100, Metabolic Activation: RAT LIVER S-9, Method: PREINCUBATION): active; positive
- mutagenic call (Test System: AMES SALMONELLA TYPHIMURIUM, Strain/Indicator: TA100, Metabolic Activation: RAT, LIVER, S-9, AROCLOR 1254, Method: FLUCTUATION TEST): active; positive
- mutagenic call (Test System: AMES SALMONELLA TYPHIMURIUM, Strain/Indicator: TA100, Metabolic Activation: RAT, LIVER, S-9, PHENOBARBITAL AND 5,6-BENZOFLAVONE, Method: PREINCUBATION): active; positive
- mutagenic call (Test System: Ames Salmonella typhimurium, Strain/Indicator: TA98, Metabolic Activation: None, Method: Preincubation): inactive; negative
- mutagenic call (Test System: Ames Salmonella typhimurium, Strain/Indicator: TA98, Metabolic Activation: Rat, liver, S-9, Aroclor 1254, Method: Preincubation): inactive; negative
- mutagenic call (Test System: Ames Salmonella typhimurium, Strain/Indicator: TA100, Metabolic Activation: None, Method: Preincubation): active; positive
- mutagenic call (Test System: Ames Salmonella typhimurium, Strain/Indicator: TA100, Metabolic Activation: Rat, liver, S-9, Aroclor 1254, Method: Preincubation): active; positive

Structure (SMILES): CNc1ccc2nc(C)cnc2c1C
- mutagenic call [1]: inactive; negative
- mutagenic call (Test System: AMES SALMONELLA TYPHIMURIUM, Strain/Indicator: TA98, Metabolic Activation: RAT, LIVER, S-9, PCB, Method: PREINCUBATION): active; positive
- mutagenic call [2]: inactive; negative
- mutagenic call (Test System: AMES SALMONELLA TYPHIMURIUM, Strain/Indicator: TA100, Metabolic Activation: RAT, LIVER, S-9, PCB, Method: PREINCUBATION): active; positive

Structure (SMILES): O=C1C[C@H](O)[C@@H]2c3c(ccc(O)c31)-c1ccc(O)c3c1[C@@]2(O)CCC3=O
- mutagenic call (Test System: AMES SALMONELLA TYPHIMURIUM, Strain/Indicator: TA98, Metabolic Activation: RAT LIVER S-9, AROCLOR 1254, Method: STANDARD PLATE): active; positive
- mutagenic call (Test System: AMES SALMONELLA TYPHIMURIUM, Strain/Indicator: TA98, Metabolic Activation: RAT, LIVER, S-9, AROCLOR 1254, Method: STANDARD PLATE): active; positive
- mutagenic call (Test System: AMES SALMONELLA TYPHIMURIUM, Strain/Indicator: TA100, Metabolic Activation: RAT LIVER S-9, AROCLOR 1254, Method: STANDARD PLATE): inactive; negative
- mutagenic call (Test System: AMES SALMONELLA TYPHIMURIUM, Strain/Indicator: TA100, Metabolic Activation: RAT, LIVER, S-9, AROCLOR 1254, Method: STANDARD PLATE): active; positive
- mutagenic call (Test System: AMES SALMONELLA TYPHIMURIUM, Strain/Indicator: TA1537, Metabolic Activation: NONE, Method: STANDARD PLATE): active; positive
- mutagenic call (Test System: AMES SALMONELLA TYPHIMURIUM, Strain/Indicator: TA1537, Metabolic Activation: RAT, LIVER, S-9, AROCLOR 1254, Method: STANDARD PLATE): active; positive
- mutagenic call (Test System: Ames Salmonella typhimurium, Strain/Indicator: TA97, Metabolic Activation: None, Method: Standard plate): inactive; negative. nitrosation increased mutagenicity
- mutagenic call (Test System: Ames Salmonella typhimurium, Strain/Indicator: TA97, Metabolic Activation: Rat, Liver, S-9, Aroclor 1254 (10%), Method: Standard plate): inactive; negative. nitrosation increased mutagenicity
- mutagenic call (Test System: Ames Salmonella typhimurium, Strain/Indicator: TA102, Metabolic Activation: None, Method: Standard plate): active; positive. nitrosation yielded mutagenic product
- mutagenic call (Test System: Ames Salmonella typhimurium, Strain/Indicator: TA102, Metabolic Activation: Rat, Liver, S-9, Aroclor 1254 (10%), Method: Standard plate): active; positive. nitrosation yielded mutagenic product
- mutagenic call (Test System: Ames Salmonella typhimurium, Strain/Indicator: TA104, Metabolic Activation: None, Method: Standard plate): inactive; negative. nitrosation increased mutagenicity
- mutagenic call (Test System: Ames Salmonella typhimurium, Strain/Indicator: TA104, Metabolic Activation: Rat, Liver, S-9, Aroclor 1254 (10%), Method: Standard plate): inactive; negative. nitrosation increased mutagenicity
- mutagenic call (Test System: Chinese hamster fibroblasts, Strain/Indicator: V79 (Hprt)/6-thioguanine, Metabolic Activation: None, Method: Standard plate): inactive; negative (positive in presence of nitrosating medium_
- mutagenic call (Test System: Rat hepatoma cells, Strain/Indicator: H4IIE (Hprt/6-thioguanine), Metabolic Activation: None, Method: Standard plate): inactive; negative (positive in presence of nitrosating medium)
